Data as given in PubChem BioAssay AID504685 (Sanford-Burnham Center for Chemical Genomics, 2011).
The source made the active and inactive calls. The rule behind the calls is not given here.

Target: Bcl-2-related protein A1 (Mus musculus) (UniProt Q07440)
Test: off-target activity on mouse Bfl-1 – biochemical, counter-screen for UBC13 polyubiquitination inhibitor project, SAR follow-up (AID 504685)
Details: Bfl-1 counterscreen for UBC13 inhibitors

Row | IC50 | SMILES
1 | 85.3 µM | CN(C)CCCN(C(=O)c1ccc(C(=O)c2ccccc2)cc1)c1nc2cc3c(cc2s1)OCCO3
2 | > 100 µM (inactive) | O=C(CCCn1c(=O)c2ccccc2n(Cc2cccc(F)c2)c1=O)NC1CCN(Cc2ccccc2)CC1
3 | > 100 µM (inactive) | COc1ccc(CCNC(=O)CCCCCN2C(=O)c3ccccc3C2=O)cc1
4 | > 100 µM (inactive) | O=C(c1ccc(S(=O)(=O)N2CCCC2)cc1)N1CCC(CN2C(=O)c3cccc4cccc(c34)C2=O)CC1
5 | > 100 µM (inactive) | Cc1nc2ccccc2c(=O)n1NC(=O)c1ccc(OC(F)F)cc1
6 | > 100 µM (inactive) | Cc1ccccc1NC(=S)NC(=O)CCCCCN1C(=O)c2ccccc2C1=O
7 | > 100 µM (inactive) | CCCOC(=O)c1ccc(NC(=O)CCCCCN2C(=O)c3ccccc3C2=O)cc1
8 | 96.2 µM | O=C1c2cccc3cccc(c23)C(=O)N1CC1CCN(CC(O)COCc2ccc3c(c2)OCO3)CC1 (configuration not stated)
9 | > 100 µM (inactive) | CC1CCCC(C)N1CCCNC(=O)C1CCCN(c2ncnc3c2nc2n3CCCCC2)C1 (configuration not stated)
10 | > 100 µM (inactive) | O=C(CCCn1c(=O)c2ccccc2n(Cc2cccc([N+](=O)[O-])c2)c1=O)NC1CCN(Cc2ccccc2)CC1
11 | > 100 µM (inactive) | Cc1ccccc1CN1CCC(CNC(=O)C2CCCN(c3ncnc4c3nc3n4CCCCC3)C2)CC1 (configuration not stated)
12 | > 100 µM (inactive) | CC(NC(=O)CCCCCN1C(=O)c2ccccc2C1=O)c1nc(-c2ccccc2)no1 (configuration not stated)
13 | > 100 µM (inactive) | CNCc1cc(Br)c(OCC(=O)Nc2ccccc2OC)c(OC)c1
14 | > 100 µM (inactive) | O=C(C1CCN(c2ncnc3c2nc2n3CCCCC2)CC1)N1CCC(Cc2ccccc2)CC1
15 | > 100 µM (inactive) | CCCCOC(=O)c1cccc(NC(=O)CCCCCN2C(=O)c3ccccc3C2=O)c1
16 | > 100 µM (inactive) | Cc1c(NC(=O)CCCN2C(=O)c3cccc4cccc(c34)C2=O)c(=O)n(-c2ccccc2)n1C
17 | 24.1 µM | COc1cccc2sc(N(CCCN(C)C)C(=O)c3ccc(S(=O)(=O)N4CCc5ccccc5C4)cc3)nc12
18 | > 100 µM (inactive) | CCc1ccc(OCC(O)CN2CCC(CN3C(=O)c4cccc5cccc(c45)C3=O)CC2)cc1 (configuration not stated)
19 | 57 µM | CCN(Cc1ccccc1)S(=O)(=O)c1ccc(C(=O)N(CCCN(C)C)c2nc3cc4c(cc3s2)OCO4)cc1

Row | IC50 | SMILES
20 | > 100 µM (inactive) | O=C(C1CCN(c2ncnc3c2nc2n3CCCCC2)CC1)N1CCN(c2ccccn2)CC1
21 | > 100 µM (inactive) | CN(CCNC(=O)C1CCN(c2ncnc3c2nc2n3CCCCC2)CC1)Cc1ccccc1
22 | > 100 µM (inactive) | O=C(NCC1CCN(Cc2cccc(Cl)c2)CC1)C1CCCN(c2ncnc3c2nc2n3CCCCC2)C1 (configuration not stated)
23 | > 100 µM (inactive) | COc1ccccc1NC(=S)NC(=O)CCCCCN1C(=O)c2ccccc2C1=O
24 | > 100 µM (inactive) | CC1CCCCN1C(=O)C1CCN(c2ncnc3c2nc2n3CCCCC2)CC1 (configuration not stated)
25 | 16.9 µM | CN(C)CCCn1c(SCC(=O)Nc2nc(-c3cccc(Br)c3)cs2)nc2ccccc2c1=O
26 | > 100 µM (inactive) | O=C(CCCCCN1C(=O)c2cccc([N+](=O)[O-])c2C1=O)NCc1ccccc1
27 | > 100 µM (inactive) | CN(C)CCCN(C(=O)c1ccc(C(=O)c2ccccc2)cc1)c1nc2cc3c(cc2s1)OCO3
28 | > 100 µM (inactive) | COc1ccc(-c2oc3ncnc(N)c3c2-c2ccccc2)cc1
29 | 55.3 µM | COc1cc(/C=C/c2cc[n+](C)cc2)ccc1OCC(=O)Nc1ccc(Cl)c(Cl)c1
30 | > 100 µM (inactive) | CCOc1cccc2sc(N(CCCN(C)C)C(=O)c3ccc(S(=O)(=O)N4CCc5ccccc5C4)cc3)nc12
31 | > 100 µM (inactive) | O=C1c2cccc3cccc(c23)C(=O)N1CCN1CCN(CC(O)COCc2ccc(Cl)cc2)CC1 (configuration not stated)
32 | > 100 µM (inactive) | Cc1ccc(-c2oc3ncnc(N)c3c2-c2ccc(C)cc2)cc1
33 | > 100 µM (inactive) | O=C(CCCCCN1C(=O)c2ccccc2C1=O)NCc1ccco1
34 | > 100 µM (inactive) | O=C(CCCCCN1C(=O)c2ccccc2C1=O)NCc1ccccn1
35 | > 100 µM (inactive) | O=C(CCCCn1c(=O)c2ccccc2n(Cc2ccccc2)c1=O)NC1CCN(Cc2ccccc2)CC1
36 | > 100 µM (inactive) | Cc1cc(NC(=O)Cn2c(=O)n(CCCCC(=O)NC3CCN(Cc4ccccc4)CC3)c(=O)c3ccccc32)n[nH]1
37 | > 100 µM (inactive) | Cc1ccc(C)c(OCC(O)CN2CCN(CCN3C(=O)c4cccc5cccc(c45)C3=O)CC2)c1 (configuration not stated)
